From patent US6956043B2, “Pharmaceutical compositions comprising 33-epi-chloro-33-desoxy-ascomycin solid dispersions” (Novartis AG, priority 1995, dated 2005)

How the values were obtained:
[1] = Relative bioavailability study in fasted beagle dogs; assay type: in vivo; conditions: 1 mg/kg, hard gelatin capsules each containing 10 mg compound X
Experimental: Hard gelatin capsules each containing 10 mg compound X were administered to 8 dogs in a 4-way latin square design; the dogs were fed 6 hours post administration of the capsules, and blood levels of compound X were determined over 48 hours.

[2] = Dissolution rate test; assay type: physicochemical; conditions: stirring in 0.2 wt % sodium dodecylsulfate in water at 37° C., 10 mg compound Y, after 30 minutes
Experimental: Forms E, F and G are tested for respective dissolution rates. […] 92% available compound Y is released from Form E. This compares with approximately 5% release after 30 minutes from an equivalent amount of crystalline compound Y.

Question: For `CO[C@H]1C[C@@H]2CC[C@@H](C)[C@@](O)(O2)C(=O)C(=O)N2CCCC[C@H]2C(=O)O[C@H]([C@H](C)C[C@@H]2CC[C@@H](OCCO)[C@H](OC)C2)CC(=O)[C@H](C)/C=C(\C)[C@@H](O)[C@@H](OC)C(=O)[C@H](C)C[C@H](C)/C=C/C=C/C=C/1C` [Compound X, 40-O-(2-hydroxy)ethyl rapamycin], which Median peak levels [1] is on record?
Answer: 140 ng/mL

Question: What about the “median AUC levels of 0-48 hr” value [1] of the same compound?
Answer: ca. 1600 ng.h/ml

Question: For `CC[C@@H]1/C=C(\C)C[C@H](C)C[C@H](OC)[C@H]2O[C@@](O)(C(=O)C(=O)N3CCCC[C@H]3C(=O)O[C@H](/C(C)=C/[C@@H]3CC[C@H](Cl)[C@H](OC)C3)[C@H](C)[C@@H](O)CC1=O)[C@H](C)C[C@@H]2OC` [crystalline compound Y, 33-epi-chloro-33-desoxy-ascomycin], which “available compound Y released and dissolved” value [2] is on record?
Answer: approximately 5%
